Data: patent US11542295B2, “Use of 20-hydroxyecdysone and the derivatives thereof in the treatment of myopathies” (BIOPHYTIS, priority 2017, dated 2023)

Columns and labels:
[1] = test system: C57BL10 mdx mice (mouse model of Duchenne muscular dystrophy); assay: Exertion tolerance test (forced motorised treadmill, maximum distance travelled); format: in vivo; conditions: 50 mg/kg*day per os, two months of treatment
Protocol: Twelve-week-old […] gene pool (wild mice referred to as “C57” in the figures) and […] mdx (mouse model of Duchenne muscular dystrophy, referred to as “mdx” in the figures) male mice, produced at Charles Rivers, were used. Two groups of mdx were chronically exposed per os either to BIO101 (number of mice n=9) or to BIO103 (number of mice n=9) at a dose of 50 mg/kg*day. A group of C57 mice (number of mice n=5) and a group of mdx mice (number of mice n=15) received the vehicle, i.e. no treatment. The animals of all of the groups were tested for their functional capacity (exertion tolerance test) after two months of treatment. The exertion tolerance test consists of measuring the maximum distance travelled (in-toto activity; FIGS. 1A and 1B). Furthermore, measurements of the maximum absolute isometric strength of the tibialis anterior muscle (in-situ activity; FIGS. 2A and 2B) were made after two months of treatment. The two-month oral treatment consists of force-feeding for five days a week and in drinking water two days a week. The exertion tolerance test is a forced motored treadmill exercise. It is a non-invasive method for assessing in-toto skeletal function. It is gold standard method in the field (Ferry et al. 1992, 1993; Hadj-Said et al. 2012). The acclimatisation period of the animals is at least 48 hours prior to the session during which the maximum running distance is measured. During the test, the mouse is placed in a running corridor on a motorised treadmill which enables a exercise controlled by the tester in the intensity and duration thereof. The treadmill ends with a horizontal grid which administers an electric shock (0.4 mA) if the animal is in contact for more than one second with the grid. The running session starts with a 2-minute warm-up period during which the speed is increased from 0 to 20 cm/s. Subsequently, the running speed is increased by 5 cm/s every 10 minutes up to the limit of the peak capacities of the mouse. When it is subjected to 5 shocks in less than 10 seconds, the test is stopped. The distance travelled is noted.

[2] = test system: tibialis anterior muscle of C57BL10 mdx mice; assay: Maximum absolute isometric strength of the tibialis anterior muscle (in situ); format: in vivo, mouse; conditions: 50 mg/kg*day, two months of treatment
Protocol: Twelve-week-old […] gene pool (wild mice referred to as “C57” in the figures) and […] mdx (mouse model of Duchenne muscular dystrophy, referred to as “mdx” in the figures) male mice, produced at Charles Rivers, were used. Two groups of mdx were chronically exposed per os either to BIO101 (number of mice n=9) or to BIO103 (number of mice n=9) at a dose of 50 mg/kg*day. A group of C57 mice (number of mice n=5) and a group of mdx mice (number of mice n=15) received the vehicle, i.e. no treatment. The animals of all of the groups were tested for their functional capacity (exertion tolerance test) after two months of treatment. The exertion tolerance test consists of measuring the maximum distance travelled (in-toto activity; FIGS. 1A and 1B). Furthermore, measurements of the maximum absolute isometric strength of the tibialis anterior muscle (in-situ activity; FIGS. 2A and 2B) were made after two months of treatment. The two-month oral treatment consists of force-feeding for five days a week and in drinking water two days a week. An assessment of in-situ contractility of the tibialis anterior muscle is carried out at the end of the protocol, i.e. after two months of treatment. […] The strength is measured during contractions in response to electrical stimulation (frequency of 75-150 Hz, duration of 500 ms). […] The maximum absolute isometric tetanic strength is measured.

[3] = test system: tibialis anterior muscle of C57BL10 mdx mice; assay: Histological study of tibialis anterior muscle stained with haematoxylin eosin (lesion profiles); format: in vivo, mouse; conditions: 50 mg/kg*day, two months, HE staining
Protocol: Twelve-week-old C57BL10 gene pool (wild mice referred to as “C57” in the figures) and C57BL10 mdx (mouse model of Duchenne muscular dystrophy, referred to as “mdx” in the figures) male mice, produced at Charles Rivers, were used. Two groups of mdx were chronically exposed per os either to BIO101 (number of mice n=9) or to BIO103 (number of mice n=9) at a dose of 50 mg/kg*day. A group of C57 mice (number of mice n=5) and a group of mdx mice (number of mice n=15) received the vehicle, i.e. no treatment. The animals of all of the groups were tested for their functional capacity (exertion tolerance test) after two months of treatment. The exertion tolerance test consists of measuring the maximum distance travelled (in-toto activity; FIGS. 1A and 1B). Furthermore, measurements of the maximum absolute isometric strength of the tibialis anterior muscle (in-situ activity; FIGS. 2A and 2B) were made after two months of treatment.
An assessment of muscle fibrosis by histological study is carried out on the tibialis anterior muscle (abbreviated as TA). Histological sections (7 μm) are produced and stained either with haematoxylin eosin (HE) or with Sirius Red (SR).
An anatomopathological study of the sections of tibialis anterior muscle stained with HE makes it possible to assess the degree of muscle fibre involvement. Representative images of tibialis anterior muscle sections stained with HE obtained from C57 animals (FIG. 4A), mdx animals (FIG. 4B), mdx animals treated with BIO101 (FIG. 4C) and mdx animals treated with BIO103 (FIG. 4D) are shown. The scale bars correspond to 200 μm. The TA muscles of C57 mice show no muscle lesions (FIG. 4A). The TA muscles of untreated mdx mice show a wide diversity of lesion profiles: moderate anisocytosis with numerous necrotic fibres. […] The A sign indicates the inflammatory foci with which fibrosis is associated. […] Indeed, 67% (6 out of 9 TA muscles) of the muscles treated with BIO103 can be classified in this category.

[4] = test system: tibialis anterior muscle of C57BL10 mdx mice; assay: Skeletal muscle vascularisation (number of vessels per muscle fibre, anti-laminin / anti-CD31 labelling); format: in vivo, mouse; conditions: 50 mg/kg*day per os, two months of daily exposure
Protocol: A quantitative vascularisation study was carried out on sections of tibialis anterior muscle (abbreviated as TA) of healthy C57 mice as well as on mdx mice treated with the vehicle and mdx mice treated with BIO101 or BIO103. Double immunofluorescence labelling is carried out, anti-laminin labelling with the function of identifying the basal membrane of the muscle fibres and anti-CD31 labelling having the function of identifying the vessel. The number of vessels per muscle fibre is quantified. The mdx animals received daily, per os, either the vehicle or BIO101 (50 mg/kg*day) or BIO103 (50 mg/kg*day).

| Compound | improvement of overall physical performances (in-toto activity) [1] [fold] | improvement of the distance travelled compared to untreated mdx animals (vehicle) [1] | increase in the maximum absolute isometric strength of the tibialis anterior muscle compared to mdx animals receiving the vehicle [2] | TA muscles with minor lesion profile [3] [%] | TA muscles with pronounced lesion profile tending towards atrophy [3] [%] | TA muscles with pronounced lesion profile with a somewhat necrotic tendency [3] [%] | TA muscles with severe lesion profile (large acute necrotic plaques with no regeneration) [3] [%] | increase of the number of vessels per muscle fibre compared to untreated mdx animals (vehicle) [4] [%] | TA muscles with pronounced lesion profile (anisocytosis, dispersed necrotic fibres and variable inflammation) [3] [%] |
| --- | --- | --- | --- | --- | --- | --- | --- | --- | --- |
| CCSCC(=O)[C@H]1CC[C@@]2(O)C3=CC(=O)[C@@H]4C[C@@H](O)[C@@H](O)C[C@]4(C)C3CC[C@]12C (stereo partly drawn) [BIO103, (2S,3R,5R,10R,13R,14S,17S)-17-(2-ethylsulfanylacetyl)-2,3,14-trihydroxy-10,13-dimethyl-2,3,4,5,9,11,12,15,16,17-decahydro-1H-cyclopenta[a]phenanthren-6-one] | 1.7 | +67% | +22.5% | 67 | 11 | 11 | 11 | 28.2 | – |
| CC(C)(O)CC[C@@H](O)[C@](C)(O)[C@H]1CC[C@@]2(O)C3=CC(=O)[C@@H]4C[C@@H](O)[C@@H](O)C[C@]4(C)[C@H]3CC[C@]12C [BIO101, 20-hydroxyecdysone] | 2.4 | +136% | +15.3% | 37.5 | – | – | – | 14.1 | 62.5 |
